The record followed here is US8778974B2, “Trisubstituted 1,2,4 triazoles” (Janssen Pharmaceutica NV, priority 2008, dated 2014).

Series [1] concerns the target T1, hα7-wt nAChR-expressing GH4Cl cells (Homo sapiens, UniProt P36544).
T1 construct: expressed in transfected cells
As to the kind of experiment: Patch-clamp current recording (whole-cell), potentiation of choline 1 mM response, PAM type. Further details: key to Pam type: Type 0 compounds minimally enhance the effect size of the current elicited by 1 mM choline.; Type 1 compounds enhance the effect size of the current elicited by 1 mM choline but minimally alter the kinetics of the receptor.; Type 2 compounds enhance the effect size of the current elicited by 1 mM choline while reducing the rate and/or the extent of desensitization.; Type 3 compounds enhance the effect size of the current elicited by 1 mM choline. When tested at higher concentrations up to 10 μM they completely inhibit desensitization, in particular a 1 mM choline application of 250 milliseconds.; Type 4 compounds allow for an initial desensitization of the receptor followed by a re-opening of the receptor during agonist application. The settings on record: for EC50: according to Ex. D.2, "<5" = no top plateau reached at maximal concentration, read-out: Potency (pEC50) (converted); for Pam type: patch-clamp current recording, 1 mM choline. Format: cell-based. On the procedure: The compounds of the present invention are classified as type 1-4, based on qualitative kinetic properties, as determined by whole-cell voltage-clamp recordings. This classification is based on the effect of an α7 PAM compound, as described hereinbefore, on the signal elicited by an agonist application. In particular, said agonist is choline at a concentration of 1 mM. In a preferred experimental setting, said α7 PAM compound and choline are simultaneously applied to the cell, as described hereinafter. Desensitization is defined as the closure of the receptor upon activation during the application of the agonist in whole-cell voltage-clamp electrophysiology measurements seen as the reduction of the […] current after initial activation by the agonist.
The definition of the PAM types 1-4 is described hereinafter: • Type 0 compounds minimally enhance the effect size of the current elicited by 1 mM choline. • Type 1 compounds enhance the effect size of the current elicited by 1 mM choline but minimally alter the kinetics of the receptor. In particular, the rate and the extent of desensitization, elicited by the agonist, is not affected. The compound-modulated response to 1 mM choline, therefore, is a close to linear scaling of the 1 mM choline response in absence of the α7 PAM compound. • Type 2 compounds enhance the effect size of the current elicited by 1 mM choline while reducing the rate and/or the extent of desensitization. • Type 3 compounds enhance the effect size of the current elicited by 1 mM choline. […] At low-potency concentrations of the α7 PAM compound, the agonist-induced activation, which is followed by desensitization, can still be separated from the compound-induced re-opening as an initial inward current-maximum. At higher potency concentrations of the α7 PAM compound, the re-opening occurs faster than the closure due to desensitization so that the initial current-maximum disappears.
Patch-clamp Current Recording
Patch-clamp recording from mammalian cells has provided a powerful means of assessing the function of membrane-bound proteins thought to be subunits of ligand-gated ion channels. Activation of such proteins by endogenous or exogenous ligands cause opening of a pore associated with the receptor through which ions flow down their electrochemical gradient. In the case of the hα7-wt nAChR-expressing GH4Cl recombinant cell line the preferential permeability to calcium of this receptor means that calcium flows into the cell upon activation by ACh, choline and other nicotinic ligands giving rise to a calcium current. Since this receptor rapidly desensitizes in the presence of agonist it is important an application system is used which is capable of very rapid switching of solutions (<100 ms) to prevent partial or full desensitisation of receptor responses coincident with the time of agonist application. Consequently, a second convenient technique to assess the enhancement of nicotinic efficacy is patch-clamp recording from hα7-wt nAChR-expressing GH4Cl cells coupled with a rapid-application system.
• a) Assay buffers • The external recording solution consisted of 152 mM NaCl, 5 mM KCl, 1 mM MgCl2, 1 mM Calcium, 10 mM HEPES; pH 7.3. The internal recording solution consisted of 140 mM CsCl, 10 mM HEPES, 10 mM EGTA, 1 mM MgCl2, pH 7.3. • b) Patch-clamp recording was carried out using a Patch-clamp amplifier (Multiclamp 700A, Axon Instruments, Calif., USA). hα7-wt nAChR-expressing GH4Cl cells were patch-clamp in the whole cell configuration (Hamill et al, 1981) with a borosilicate glass electrode of 1.5-3 MΩ tip resistance when filled with the internal recording solution. Recordings were made on cells with membrane resistance >500 MΩ and more preferably 1GΩ and series resistance <15 MΩ with at least 60% series resistance compensation. […]
For orientation: Patch clamp records ionic current or voltage across a cell membrane.

The melting point is the temperature, or range, at which the solid turns liquid.

T1 sequence (P36544 23-502): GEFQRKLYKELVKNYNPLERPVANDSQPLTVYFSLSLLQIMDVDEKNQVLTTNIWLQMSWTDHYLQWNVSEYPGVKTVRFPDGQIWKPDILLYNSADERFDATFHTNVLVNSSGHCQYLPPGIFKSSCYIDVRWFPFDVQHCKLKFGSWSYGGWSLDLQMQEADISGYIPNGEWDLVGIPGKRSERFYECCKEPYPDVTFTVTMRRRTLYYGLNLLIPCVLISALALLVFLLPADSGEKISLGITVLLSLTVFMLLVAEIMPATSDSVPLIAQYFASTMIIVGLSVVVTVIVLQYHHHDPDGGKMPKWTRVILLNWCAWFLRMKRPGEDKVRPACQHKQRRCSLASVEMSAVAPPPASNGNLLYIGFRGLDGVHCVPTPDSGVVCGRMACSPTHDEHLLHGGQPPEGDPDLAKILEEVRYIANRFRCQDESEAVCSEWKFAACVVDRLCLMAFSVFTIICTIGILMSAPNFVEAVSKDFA

Regarding `COc1ccc(-n2nc(Nc3cc(OC)cc(C(F)(F)F)c3)nc2C[C@H](C)O)cc1` [E146], the melting point turned out to be 135.4 °C. Moreover, in series [1], the EC50 is around 363 nM.

The compound `CC[C@H](O)Cc1nc(Nc2ccc(F)c(F)c2)nn1-c1ccnc(C)c1` [E30] gave a melting point of 171.1 °C. In series [1], the EC50 is 676 nM and the Pam type is on record as 2.

`Cc1cc(-n2nc(Nc3cccc(Cl)c3)nc2C[C@H](C)O)ccn1` [E23]: the melting point was determined as 185 °C. Further, the EC50 in series [1] is 2190 nM.

The compound `CN(C)C(=O)CCc1nc(Nc2ccc(F)c(C(F)(F)F)c2)nn1-c1ccncc1Cl` [E74] displayed a melting point of 181.7 °C. In addition, in series [1], the EC50 is 72.4 nM and the Pam type was 4.

For `CC[C@H](O)Cc1nc(Nc2cccc(Cl)c2)nn1-c1ccnc(C)c1` [E139], the melting point worked out at 126.7 °C. In addition, in series [1], the EC50 is 324 nM and the Pam type came out at 2.

`Cc1cc(-n2nc(Nc3cc(F)c(F)c(F)c3)nc2C[C@H](C)O)cc(C)n1` [E208]: the melting point is 199.6 °C. In addition, in series [1], the EC50 was 741 nM and the Pam type is on record as 2.

In the case of `C[C@H](O)Cc1nc(Nc2ccc(F)c(C(F)(F)F)c2)nn1-c1cccc(F)c1` [E18], the melting point turned out to be 161 °C. Also, the EC50 in series [1] is 3310 nM.

As for `CN(C)C(=O)CCc1nc(Nc2cccc(OC(F)(F)F)c2)nn1-c1cccnc1Cl` [E76], the melting point is 145.7 °C. Besides, in series [1], the EC50 was 407 nM.

As to `CNC(=O)Cc1nc(Nc2ccc(F)c(C(F)(F)F)c2)nn1-c1ccnc(C)c1` [E35], the melting point was 272.9 °C. For the same compound, in series [1], the EC50 was 1170 nM and the Pam type worked out at 3.

For the compound `CC[C@H](O)Cc1nc(Nc2ccc(F)c(F)c2)nn1-c1cccc(OC)c1` [E149], the melting point turned out to be 144.1 °C. Also, the EC50 in series [1] was 1380 nM.

With `COCCCc1nc(Nc2ccc(F)c(C(F)(F)F)c2)nn1-c1ccncc1Cl` [E12, 1-(3-Chloro-4-pyridinyl)-N-[4-fluoro-3-(trifluoromethyl)phenyl]-5-(3-methoxypropyl)-1H-1,2,4-triazol-3-amine], the melting point came to 105.3 °C. Besides, the EC50 in series [1] was 2240 nM.

As for `Cc1ncccc1-n1nc(Nc2ccc3c(c2)OC(F)(F)O3)nc1CCC(=O)N(C)C` [E116], the melting point amounted to 151.7 °C. The EC50 in series [1] is 2950 nM.

`CC[C@H](O)Cc1nc(Nc2ccc(F)c(F)c2)nn1-c1cccc(F)c1` [E27] came in with a melting point of 158.1 °C. Also, in series [1], the EC50 is 1910 nM and the Pam type was 1.

`Cc1cc(-n2nc(Nc3ccc(F)c(C(F)(F)F)c3)nc2CCCCl)ccn1` [E9, 5-(3-chloropropyl)-N-[4-fluoro-3-(trifluoromethyl)phenyl]-1-(2-methyl-4-pyridinyl)-1H-1,2,4-triazol-3-amine] returned a melting point of 182.8 °C. Further, the EC50 in series [1] was 437 nM.

`Cc1cc(-n2nc(Nc3ccc(F)c(F)c3F)nc2C[C@H](C)O)cc(C)n1` [E189, (alphaS)-1-(2,6-dimethyl-4-pyridinyl)-alpha-methyl-3-[(2,3,4-trifluorophenyl)amino]-1H-1,2,4-triazole-5-ethanol] yielded a melting point of 138 °C. In series [1], the EC50 is 631 nM and the Pam type was 2.

`Cc1cc(-n2nc(Nc3ccc4c(c3)OC(F)(F)O4)nc2CC(=O)NCC2CC2)cc(C)n1` [E201] returned a melting point of 270.3 °C. Also, in series [1], the EC50 is 302 nM and the Pam type stood at 2.

Compound `Cc1cc(-n2nc(Nc3cccc(C(F)(F)F)c3)nc2CC(=O)NC2CCC2)cc(C)n1` [E174] showed a melting point of 276.3 °C. Besides, in series [1], the EC50 is 162 nM and the Pam type was determined as 2.

Compound `Cc1cc(-n2nc(Nc3cccc(OC(F)(F)F)c3)nc2CC(=O)NCC2CC2)cc(C)n1` [E165] returned a melting point of 247.5 °C. Moreover, in series [1], the EC50 is 209 nM and the Pam type turned out to be 1.

`COc1ccc(-n2nc(Nc3ccc(F)c(C(F)(F)F)c3)nc2C[C@H](C)O)cc1` [E22] displayed a melting point of 188.7 °C. In addition, in series [1], the EC50 was 851 nM and the Pam type is 0.

The compound `CCNC(=O)Cc1nc(Nc2cccc(OC(F)(F)F)c2)nn1-c1cc(C)nc(C)c1` [E181] displayed a melting point of 277.5 °C. Further, in series [1], the EC50 is 513 nM and the Pam type is recorded as 2.

Compound `COc1cc(Nc2nc(C[C@H](C)O)n(-c3ccnc(C)c3)n2)cc(C(F)(F)F)c1` [E135] displayed a melting point of 196.3 °C. Besides, in series [1], the EC50 was 550 nM and the Pam type came to 4.

As to `CC[C@H](O)Cc1nc(Nc2ccc(F)c(F)c2)nn1-c1ccc(OC)cc1` [E29], the melting point was 117.6 °C. Moreover, in series [1], the EC50 is 1150 nM and the Pam type was 1.

The compound `Cc1cc(-n2nc(Nc3ccc4c(c3)OC(F)(F)O4)nc2CC(=O)NC2CCC2)cc(C)n1` [E179] showed a melting point of 291.3 °C. For the same compound, in series [1], the EC50 was 97.7 nM and the Pam type is on record as 1.

In turn, `Cc1cc(-n2nc(Nc3ccc(F)c(C(F)(F)F)c3)nc2CCCF)ccn1` [E8, 5-(3-Fluoropropyl)-N-[4-fluoro-3-(trifluoromethyl)phenyl]-1-(2-methyl-4-pyridinyl)-1H-1,2,4-triazol-3-amine] registered a melting point of 191.5 °C. Besides, in series [1], the EC50 is 513 nM and the Pam type came to 0.

For the compound `CC[C@H](O)Cc1nc(Nc2ccc(F)c(F)c2F)nn1-c1ccnc(C)c1` [E130, (alphaS)-alpha-ethyl-1-(2-methyl-4-pyridinyl)-3-[(2,3,4-trifluorophenyl)amino]-1H-1,2,4-triazole-5-ethanol], in series [1], the EC50 was 269 nM and the Pam type turned out to be 2.

Consider `CN(C)C(=O)CCc1nc(Nc2ccc(F)c(F)c2)nn1-c1ccncc1` [E67], for which, in series [1], the EC50 is 447 nM and the Pam type came to 4.

Regarding `CCNC(=O)Cc1nc(Nc2ccc3c(c2)OC(F)(F)O3)nn1-c1cc(C)ncc1C` [E163], in series [1], the EC50 is 2510 nM and the Pam type is 4.

Turning to `Cc1cc(-n2nc(Nc3ccc(F)c(F)c3)nc2CC(=O)NC2CCC2)cc(C)n1` [E169], in series [1], the EC50 is 295 nM and the Pam type amounted to 2.

Turning to `Cc1cc(-n2nc(Nc3ccc(F)c(C(F)(F)F)c3)nc2CCO)ccn1` [E16], in series [1], the EC50 was 525 nM.

With `CC[C@H](O)Cc1nc(Nc2cc(F)cc(OC)c2)nn1-c1cc(C)nc(C)c1` [E190, (alphaS)-1-(2,6-dimethyl-4-pyridinyl)-alpha-ethyl-3-[(3-fluoro-5-methoxyphenyl)amino]-1H-1,2,4-triazole-5-ethanol], in series [1], the EC50 was 398 nM and the Pam type came out at 2.

In turn, `Cc1cc(-n2nc(Nc3cccc(C(F)(F)F)c3F)nc2CC(=O)NC2CC2)cc(C)n1` [E257, N-Cyclopropyl-1-(2,6-dimethyl-4-pyridinyl)-3-[[2-fluoro-3-(trifluoromethyl)phenyl]amino]-1H-1,2,4-triazole-5-acetamide] registered a melting point of 244.4 °C.

Turning to `CN(C)C(=O)CCc1nc(Nc2ccc(F)c(F)c2)nn1-c1ccc(OC(F)(F)F)cc1` [E66], in series [1], the EC50 was 240 nM and the Pam type was 4.
